Counter-ions that a name gives are not always drawn.
Experiments:
[1] = molecular target: T1, Human angiotensin II type 1 receptor (Homo sapiens, UniProt P30556); assay: Human angiotensin II type 1 receptor binding assay; conditions: for inhibition at 0.1 µM / AT1 Binding Human % Inhibition at 100 nM: percent inhibition of control specific binding at 100 nM test compound; for inhibition at 0.1 µM: read-out: AT1 Binding Human % Inhibition at 100 nM
T1 construct: Cerep, Seattle, Wash; (contract laboratory that ran the assay)
T1 sequence (P30556 1-359): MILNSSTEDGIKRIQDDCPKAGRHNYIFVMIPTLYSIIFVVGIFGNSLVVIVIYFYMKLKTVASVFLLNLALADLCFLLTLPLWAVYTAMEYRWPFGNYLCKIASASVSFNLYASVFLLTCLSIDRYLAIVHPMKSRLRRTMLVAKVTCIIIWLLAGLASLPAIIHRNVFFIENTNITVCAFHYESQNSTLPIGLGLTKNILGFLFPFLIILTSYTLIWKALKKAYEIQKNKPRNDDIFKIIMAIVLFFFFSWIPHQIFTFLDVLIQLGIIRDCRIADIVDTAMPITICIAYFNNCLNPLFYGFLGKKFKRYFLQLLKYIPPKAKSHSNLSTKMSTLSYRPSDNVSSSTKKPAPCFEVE
Method: Human Angiotensin II Type 1 Receptor Binding Assay
The Human angiotensin II type 1 receptor binding assay was performed by Cerep, Seattle, Wash., using the procedure described in Bergsma et al; Biochem. Biophys. Res. Commun., 183: 989-995 (1992).

| Compound | melting point | IC50 ([1]; human AT1 receptor binding, performed by Cerep) [nM] | inhibition at 0.1 µM [1] [%] | AT1 Binding Human % Inhibition at 100 nM [1] [%] |
| --- | --- | --- | --- | --- |
| CCOc1nc2cccc(CO[N+](=O)[O-])c2n1Cc1ccc(-c2ccccc2-c2nnn[nH]2)cc1 (as salt: nitrate) [Example 14e, 1H-benzimidazole-7-methanol, 2-ethoxy-1-[[2′-(1H-tetrazol-5-yl)[1,1′-biphenyl]-4-yl]methyl]-, nitrate (ester)] | 126 °C (dec.) |  |  |  |
| CC(C)[C@@H](C(=O)OC(C)(C)C)N(Cc1ccc(-c2ccccc2-c2nnn(C(c3ccccc3)(c3ccccc3)c3ccccc3)n2)cc1)C(=O)CCCCCO[N+](=O)[O-] [Example 2f, L-valine, N-[6-(nitrooxy)-1-oxohexyl]-N-[[2′-[2-(triphenylmethyl)-2H-tetrazol-5-yl][1,1′-biphenyl]-4-yl]methyl]-, 1,1-dimethylethyl ester] |  |  | 12 |  |
| CC(C)[C@@H](C(=O)O)N(Cc1ccc(-c2ccccc2-c2nnn[nH]2)cc1)C(=O)c1cccc(CO[N+](=O)[O-])c1 [Example 3b, L-valine, N-[3-[(nitrooxy)methyl]benzoyl]-N-[[2′-(1H-tetrazol-5-yl)[1,1′-biphenyl]-4-yl]methyl]] | 151 °C (dec.) |  | 5 |  |
| CC(C)[C@@H](C(=O)O)N(Cc1ccc(-c2ccccc2-c2nnn[nH]2)cc1)C(=O)CCC(CO[N+](=O)[O-])O[N+](=O)[O-] (stereo partly drawn) [Example 4b, L-valine, N-[4,5-bis(nitrooxy)-1-oxopentyl]-N-[[2′-(1H-tetrazol-5-yl)[1,1′-biphenyl]-4-yl]methyl]] | 182 °C (dec.) |  | 2 |  |
| CC(C)[C@@H](C(=O)O)N(Cc1ccc(-c2ccccc2-c2nnn[nH]2)cc1)C(=O)CCCC(CO[N+](=O)[O-])O[N+](=O)[O-] (stereo partly drawn) [Example 5b, L-valine, N-[5,6-bis(nitrooxy)-1-oxohexyl]-N-[[2′-(1H-tetrazol-5-yl)[1,1′-biphenyl]-4-yl]methyl]] | 192 °C (dec.) |  | -1 |  |
| CCCCC(=O)N(CCCO[N+](=O)[O-])Cc1ccc(-c2ccccc2-c2nnn[nH]2)cc1 [Example 7d, Pentanamide, N-[3-(nitrooxy)propyl]-N-[[2′-(1H-tetrazol-5-yl)[1,1′-biphenyl]-4-yl]methyl]] | 54 to 59 °C |  | 21 |  |
| CCCCC(=O)N(Cc1ccc(-c2ccccc2-c2nnn[nH]2)cc1)[C@H](C(=O)N(CCO[N+](=O)[O-])CCO[N+](=O)[O-])C(C)C [Example 8] | 87 to 90 °C |  | 4 |  |
| CCc1nc2c(C)cc(C)nc2n1Cc1ccc(-c2ccccc2S(=O)(=O)NC(=O)C2CC(C)(C)N([O])C(C)(C)C2)cc1 [Example 11, 1-Piperidinyloxy, 4-[[[[4′-[(2-ethyl-5,7-dimethyl-3H-imidazo[4,5-b]pyridin-3-yl)methyl][1,1′-biphenyl]-2-yl]sulfonyl]amino]carbonyl]-2,2,6,6-tetramethyl] |  |  |  | 88 |
| CCc1nc2c(C)cc(C)nc2n1Cc1ccc(-c2ccccc2S(=O)(=O)NC(=O)C2=CC(C)(C)N([O])C2(C)C)cc1 [Example 12, 1H-Pyrrol-1-yloxy, 3-[[[[4′-[(2-ethyl-5,7-dimethyl-3H-imidazo[4,5-b]pyridin-3-yl)methyl][1,1′-biphenyl]-2-yl]sulfonyl]amino]carbonyl]-2,5-dihydro-2,2,5,5-tetramethyl] |  |  |  | 78 |
| CCc1nc2c(C)cc(C)nc2n1Cc1ccc(-c2ccccc2S(=O)(=O)NC(=O)c2cccc(CO[N+](=O)[O-])c2)cc1 [Example 13, Benzamide, N-[[4′-[(2-ethyl-5,7-dimethyl-3H-imidazo[4,5-b]pyridin-3-yl)methyl][1,1′-biphenyl]-2-yl]sulfonyl]-3-[(nitrooxy)methyl]] | 123 °C (dec.) |  | 73 |  |
| CCc1nc2c(C)cc(C)nc2n1Cc1ccc(-c2ccccc2S(=O)(=O)NC(=O)c2ccccc2)cc1 [MK 996, reference compound] |  |  |  | 91 |

The next lines start with results.

| melting point | IC50 ([1]; human AT1 receptor binding, performed by Cerep) [nM] | inhibition at 0.1 µM [1] [%] | Compound | AT1 Binding Human % Inhibition at 100 nM [1] [%] |
| --- | --- | --- | --- | --- |
| 108 to 111 °C | 18 | 86 | CC(C)[C@@H](C(=O)O)N(Cc1ccc(-c2ccccc2-c2nnn[nH]2)cc1)C(=O)CCCCO[N+](=O)[O-] [Example 1g, L-valine, N-[5-(nitrooxy)-1-oxopentyl]-N-[[2′-(1H-tetrazol-5-yl)[1,1′-biphenyl]-4-yl]methyl]] |  |
| 196 °C (dec.) |  |  | CC(C)[C@@H](C(=O)O)N(Cc1ccc(-c2ccccc2-c2nnn[nH]2)cc1)C(=O)CCCCCO[N+](=O)[O-] [Example 2g, L-valine, N-[6-(nitrooxy)-1-oxohexyl]-N-[[2′-(1H-tetrazol-5-yl)[1,1′-biphenyl]-4-yl]methyl]] |  |
| 75 to 78 °C |  | 83 | CC(C)[C@@H](C(=O)N(C)C)N(Cc1ccc(-c2ccccc2-c2nnn[nH]2)cc1)C(=O)CCCCO[N+](=O)[O-] [Example 6, Pentanamide, N-[(1S)-1-[(dimethylamino)carbonyl]-2-methylpropyl]-5 (nitrooxy)-N-[[2′-(1H-tetrazol-5-yl)[1,1′-biphenyl]-4-yl]methyl]] |  |
| 86 to 89 °C |  | 8 | CCCCC(=O)N(Cc1ccc(-c2ccccc2-c2nnn[nH]2)cc1)[C@H](C(=O)N(C)CCO[N+](=O)[O-])C(C)C [Example 9] |  |
| 86 to 88 °C |  | 22 | CCCCC(=O)N(Cc1ccc(-c2ccccc2-c2nnn[nH]2)cc1)[C@H](C(=O)N1CCC(CO[N+](=O)[O-])CC1)C(C)C [Example 10, Pentanamide, N-[(1S)-2-methyl-1-[[4-[(nitrooxy)methyl]-1-piperidinyl]carbonyl]propyl]-N-[[2′-(1H-tetrazol-5-yl) [1,1′-biphenyl]-4-yl]methyl]] |  |
|  |  | 94 | CCCCC(=O)N(Cc1ccc(-c2ccccc2-c2nnn[nH]2)cc1)[C@H](C(=O)O)C(C)C [Valsartan, reference compound] |  |

From patent US20070032533A1, “Nitric oxide enhancing angiotensin II antagonist compounds, compositions and methods of use” (NitroMed, Inc., priority 2005, published 2007)
